Laboratory results taken from PMC13183915, “A platinum butterfly effect: small changes turn an anticancer drug into a non-toxic metalloantibiotic with in vivo efficacy” (npj Antimicrobials and Resistance, 2026).
Converted amounts (≈) assume the structure as drawn. “And” between values parts separate entries of the source, which are not always exact repeats. Identical values can stand only once.

Legend:
[1] = test system: MRSA NRS 100; test: Broth microdilution MIC, MRSA NRS 100; type: cell-based, S. aureus; details: Staphylococcus aureus
Procedure: (§1) The data is given in supporting information (Table S5). Before starting the experiment, a single colony was picked from MHA plate, inoculated in MHBII and incubated overnight at 37 °C with shaking for 18–24 h to get the starter culture. Antibiotic susceptibility testing was conducted according to the CLSI (Clinical & Laboratory Standards Institute) guidelines using the broth microdilution assay. 10 mg/mL stock solutions of test compounds were prepared in DMSO. Bacterial cultures were inoculated in MHBII and optical density (OD) was measured at 600 nm, followed by dilution to achieve ~10^6 CFU/mL. The compounds were tested from 64 to 0.5 mg/L in two-fold serial diluted fashion with 2.5 μL of each concentration added to well of a 96-well round bottom microtiter plate. Later, 97.5 μL of bacterial suspension was added to each well containing either test compound or appropriate controls. […] The MIC is defined as the lowest concentration of the compound at which there is absence of visible growth. For each test compound, MIC determinations were carried out independently three times using duplicate samples.

[2] = test system: MRSA NRS 192; test: Broth microdilution MIC, MRSA NRS 192; type: cell-based, S. aureus; details: Staphylococcus aureus
Procedure: as §1

[3] = test system: MRSA NRS 194; test: Broth microdilution MIC, MRSA NRS 194; type: cell-based, S. aureus; details: Staphylococcus aureus
Procedure: as §1

[4] = test system: MRSA NRS 119; test: Broth microdilution MIC, MRSA NRS 119; type: cell-based, S. aureus; details: Staphylococcus aureus
Procedure: as §1

[5] = test system: MSSA ATCC 29213; test: Broth microdilution MIC, MSSA ATCC 29213; type: cell-based, S. aureus; details: Staphylococcus aureus
Procedure: as §1

[6] = test system: Bacillus subtilis MW168; test: MIC assay, B. subtilis MW168; type: cell-based; details: Bacillus subtilis, MW168
[7] = test system: MRSA NRS 198; test: Broth microdilution MIC, MRSA NRS 198; type: cell-based, S. aureus; details: Staphylococcus aureus
Procedure: as §1

[8] = test system: methicillin-resistant S. aureus (MRSA) COL; test: MIC assay, MRSA COL; type: cell-based, Staphylococcus aureus; details: Staphylococcus aureus, MRSA
[9] = test system: VRSA VRS 12; test: Broth microdilution MIC, VRSA VRS 12; type: cell-based, S. aureus; details: Staphylococcus aureus, VRSA
Procedure: as §1

[10] = test system: methicillin-sensitive Staphylococcus aureus (MSSA), clinical isolate; test: MIC assay, MSSA clinical isolate; type: cell-based; details: Staphylococcus aureus, MSSA
[11] = test system: MRSA NRS 191; test: Broth microdilution MIC, MRSA NRS 191; type: cell-based, S. aureus; details: Staphylococcus aureus
Procedure: as §1

[12] = test system: S. aureus ATCC 29213; test: Drug interaction study (chequerboard assay); type: cell-based
Procedure: All compounds were freshly prepared for the experiment. […] Following incubation, the fractional inhibitory concentration index (FICI) was calculated with the formula FICI = […], whereby FICA = MIC of drug A in combination/MIC of drug A alone and FICB = MIC of drug B in combination/MIC of drug B alone. A drug combination is considered synergistic when ∑FICI is ≤0.5, indifferent when ∑FICI is >0.5 to 4, and antagonistic when ∑FICI is >4.

[13] = test system: MRSA NRS 193; test: Broth microdilution MIC, MRSA NRS 193; type: cell-based, S. aureus; details: Staphylococcus aureus
Procedure: as §1

[14] = test system: MRSA NRS 186; test: Broth microdilution MIC, MRSA NRS 186; type: cell-based, S. aureus; details: Staphylococcus aureus
Procedure: as §1

[15] = test system: 36th Passage S.aureus ATCC 29213 in the presence of Pt-1; test: microbe, parasite or virus in culture; type: cell-based; details: Staphylococcus aureus, ATCC29213
Procedure: The MICs of the passaged cultures were determined every 3 days and compared to that of wild type S. aureus ATCC 29213. MIC changes were recorded for 36 passages.

[16] = test system: VRSA VRS 4; test: Broth microdilution MIC, VRSA VRS 4; type: cell-based, S. aureus; details: Staphylococcus aureus, VRSA
Procedure: as §1

[17] = test system: VRSA VRS 1; test: Broth microdilution MIC, VRSA VRS 1; type: cell-based, S. aureus; details: Staphylococcus aureus, VRSA
Procedure: as §1

[18] = test system: MRSA NRS 129; test: Broth microdilution MIC, MRSA NRS 129; type: cell-based, S. aureus; details: Staphylococcus aureus
Procedure: as §1

[19] = test system: S. aureus ATCC 29213; test: Post antibiotic effect (PAE); type: cell-based; details: for Time for 1 log10 increase in bacterial cfu count: 1 h exposure
Procedure: Post antibiotic effect (PAE) was determined as follows. […] Following incubation, cultures were centrifuged and washed twice with pre-warmed MHBII to remove any traces of antibiotics. Finally, cells were resuspended in drug-free MHBII and incubated further at 37 °C. Samples were taken every 1 h, serially diluted, and plated on tryptic soy agar (TSA) for enumeration of CFU. […] CFU observed immediately after the removal of the drug, and C in a similarly treated drug-free control.

[20] = test system: S. aureus ATCC 29213; test: Murine superficial skin infection model; type: in vivo; details: topical 2% cream, twice daily for 4 days, Swiss mice
Procedure: The in vivo efficacy of Pt1 was determined in a superficial skin infection model. Briefly, male Swiss mice, 4–6 weeks old, weighing ∼22–25 g, were used throughout the study. Mice were caged alone in an individually vented cage (IVC) to check cross-contamination and to maintain aseptic conditions throughout the experiment. Ketamine and xylazine were prepared in distilled water, 40 mg/kg and 8 mg/kg of body weight, respectively, and injected intraperitoneally (IP) as a mixture of 100 μL in each mouse for anaesthesia. Then, we proceeded with the removal of fur by applying depilatory cream. The area was cleaned with sterile distilled water. Approximately 2 cm^2 of skin area was scratched until it became visibly reddened and glistening without any bleeding. For bacterial infection, a 10 μL droplet containing 10^7 CFU/mL of S. aureus ATCC 29213 was applied to the reddened area of skin. To confirm the infection, post 4 h, untreated mice were sacrificed, skin homogenized, and various dilutions of the treatment groups (6 mice per group) were plated on TSA plates. […] Henceforth, the drug regimen was comprised of twice daily application (in the morning and the evening, with an 8 h interval) for 4 days. Control mice were regularly treated with 25–30 mg each of 2% fusidic acid (LEO Pharma, Ballerup, Denmark), 2% infuzide, and base (vehicle). […]

SMILES: CN[C@H](CC(C)C)C(=O)N[C@H]1C(=O)N[C@@H](CC(N)=O)C(=O)N[C@H]2C(=O)N[C@H]3C(=O)N[C@H](C(=O)N[C@H](C(=O)O)c4cc(O)cc(O)c4-c4cc3ccc4O)[C@H](O)c3ccc(c(Cl)c3)Oc3cc2cc(c3O[C@@H]2O[C@H](CO)[C@@H](O)[C@H](O)[C@H]2O[C@H]2C[C@](C)(N)[C@H](O)[C@H](C)O2)Oc2ccc(cc2Cl)[C@H]1O [Van, Vancomycin]
- MIC [1]: 1.34 µM (≈ 1.94 µg/mL)
- MIC [2]: 0.67 to 1.34 µM (≈ 0.971 to 1.94 µg/mL)
- MIC [3]: 0.67 µM (≈ 0.971 µg/mL)
- MIC [4]: 1.34 µM (≈ 1.94 µg/mL)
- MIC [5]: 1 µg/mL and 0.67 µM
- MIC [6]: < 0.22 µM
- MIC [7]: 1.34 µM (≈ 1.94 µg/mL)
- MIC [8]: 0.86 µM (≈ 1.25 µg/mL)
- MIC [9]: > 43.1 µM
- MIC [10]: 0.86 µM (≈ 1.25 µg/mL)
- MIC [11]: 1.34 µM (≈ 1.94 µg/mL)
- MIC ([12]; Staphylococcus aureus, ATCC29213): 1 µg/mL
- FIC B ([12]; antibiotic in combination with Pt1 / alone): 1
- FIC (FICA+FICB) ([12]; combination with Pt1): 2
- Interference ([12]; combination with Pt1, synergistic ≤0.5, indifferent >0.5 to 4, antagonistic >4): no interaction
- MIC [13]: 1.34 µM (≈ 1.94 µg/mL)
- MIC [14]: 0.67 µM (≈ 0.971 µg/mL)
- MIC [15]: 1 µg/mL (≈ 0.69 µM)
- MIC [16]: > 43.1 µM
- MIC [17]: > 43.1 µM
- MIC [18]: 0.67 µM (≈ 0.971 µg/mL)
- PAE ([19]; 1x MIC): ~ 2.5 h
- Time for 1 log10 increase in bacterial cfu count ([19]; 1x MIC): ~ 5 h
- PAE ([19]; 5x MIC): ~ 2.5 h
- Time for 1 log10 increase in bacterial cfu count ([19]; 5x MIC): ~ 5 h
- Time for 1 log10 increase in bacterial cfu count ([19]; 10x MIC): ~ 5 h
- PAE ([19]; 10x MIC, listed as Vancomycin): ~ 2.5 h
- PAE ([19]; 10x MIC, listed as vancomycin): 2.5 h

SMILES: CC(=O)O[C@H]1C[C@@]2(C)[C@@H](C[C@@H](O)[C@H]3[C@@]4(C)CC[C@@H](O)[C@@H](C)[C@@H]4CC[C@@]32C)/C1=C(\CCC=C(C)C)C(=O)O [fusidic acid]
- reduction in bacterial load compared to vehicle-treated group [20]: ~ 2.9 log10 CFU/g
